Like-named read-outs stand apart in the source and are kept apart here.
Target: T1, CCK receptor sites (Mus musculus, UniProt P56481)
T1 construct: from tissue; host or cells: cerebral cortex membranes of male CFLP mice
T1 sequence (P56481 1-453): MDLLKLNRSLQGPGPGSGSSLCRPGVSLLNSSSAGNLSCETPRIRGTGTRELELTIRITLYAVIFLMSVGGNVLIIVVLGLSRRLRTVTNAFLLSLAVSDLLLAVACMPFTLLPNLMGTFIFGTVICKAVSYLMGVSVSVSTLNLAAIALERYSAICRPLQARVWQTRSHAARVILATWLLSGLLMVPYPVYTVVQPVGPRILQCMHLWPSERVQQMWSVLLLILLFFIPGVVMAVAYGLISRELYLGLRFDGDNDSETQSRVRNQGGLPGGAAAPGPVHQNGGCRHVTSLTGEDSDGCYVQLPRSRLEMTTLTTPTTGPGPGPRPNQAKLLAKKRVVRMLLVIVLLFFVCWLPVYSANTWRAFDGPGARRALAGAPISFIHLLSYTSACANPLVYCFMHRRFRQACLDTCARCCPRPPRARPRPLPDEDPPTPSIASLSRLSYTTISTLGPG
Test: CCK receptor binding, displacement of tritiated pentagastrin from mouse cerebral cortex membranes
Set-up: key: IA = Inactive in respect to this binding assay
Details: 2 nM tritiated pentagastrin, mouse cerebral cortical membranes, Ki from IC50 by Cheng-Prusoff
Experimental: The biological activity of compounds of the present invention was evaluated employing an initial screening test which rapidly and accurately measured the binding of the tested compound to known CCK receptor sites. […] (See Hays, et al, Neuropeptides 1:53-62, 1980; and Satuer, et al, Science 208:1155-1156, 1980.)
In this screening test the cerebral cortices taken from male CFLP mice weighing between 30 to 40 g were dissected on ice, weighed, and homogenized in 10 volumes of 50 mM Tris-HCl buffer (pH 7.4 at 0° to 4° C.). The resulting suspension was centrifuged, the supernate was discarded, and the pellet was washed by resuspension in Tris-HCl buffer followed by recentrifugation. The final pellet was resuspended in 20 volumes of […] Hepes buffer (pH 7.2 at 23° C.) containing 130 mM NaCl, […] KCl, […] MgCl2, […] EDTA, 5 mg/mL bovine albumin, and bacitracin (0.25 mg/mL).
In saturation studies, cerebral cortical membranes were incubated at 23° C. for 120 minutes in a final volume of 500 μL of Hepes incubation buffer (pH 7.2) together with 0.2-20 nM tritiated-pentagastrin (Amersham International, England).
In the displacement experiments, membranes were incubated with a single concentration (2 nM) of ligand, together with increasing concentrations of competitive test compound. In each case, the nonspecific binding was defined as that persisting in the presence of the unlabeled octapeptide CCK26-33 (10^-6 M).
Following incubation, radioactivity bound to membranes was separated from that free in solution by rapid filtration through Whatman GF/B filters and washed three times with 4 mL of ice cold Tris-HCl buffer. Filters from samples incubated with tritiated pentagastrin were placed in polyethylene vials with 4 mL of scintillation cocktail, and the radioactivity was estimated by liquid scintillation spectrometry (efficiency 47% to 52%).
The specific binding to CCK receptor sites was defined as the total bound tritiated pentagastrin minus the amount of tritiated pentagastrin bound in the presence of 10^-6 octapeptide, CCK26-33.
Saturation curves for specific tritiated pentagastrin binding to mouse cortical membranes were analyzed by the methods of Scatchard (Ann. New York Acad. Sci. 51:660-672, 1949; Hill, J. Physiol. 40:IV-VIII, 1910) to provide estimates for the maximum number of binding sites (βmax)and the equilibrium dissociation constant (Ka).
In displacement experiments, inhibition curves were analyzed by either logit-log plots or the iterative curve fitting computer program ALLFIT (DeLean, Munson, and Redbard, 1978) to provide estimates of the IC50 and nH (apparent Hill coefficient) values). IC50 values were defined as the concentration of test compound required to produce 50% inhibition of specific binding).
The inhibition constant (Ki) of the test compound was then calculated according to the Cheng-Prusoff equation: [formula] where [L] is the concentration of radiolabel and Ka is the equilibrium dissociation constant.
The Ki values for several representative compounds of the present invention are present in Table II.

Ki (read-out: Ki) [nM]	Ki	Compound
844	–	CC(Cc1cc2c3ccccc3n(S(C)(=O)=O)c2cn1)(NC(=O)OC1C2CC3CC(C2)CC1C3)C(=O)NC(CO)Cc1ccccc1 (centres unmarked)
1990	–	CC(Cc1cc2c3ccccc3n(S(C)(=O)=O)c2cn1)(NC(=O)OC1C2CC3CC(C2)CC1C3)C(=O)NCCc1ccccc1 (centres unmarked)
2170	–	CC(Cc1cc2c(cn1)[nH]c1ccccc12)(NC(=O)OC1C2CC3CC(C2)CC1C3)C(=O)NCCc1ccccc1 (centres unmarked)
3000	–	CC(Cc1ccccn1)(NC(=O)OC1C2CC3CC(C2)CC1C3)C(=O)NCCc1ccccc1 (centres unmarked)
1390	–	CC(Cc1cc2c(cn1)[nH]c1ccccc12)(NC(=O)OC1C2CC3CC(C2)CC1C3)C(=O)NC(CO)Cc1ccccc1 (centres unmarked)
3000	–	CC(Cc1ccncc1)(NC(=O)OC1C2CC3CC(C2)CC1C3)C(=O)NCCc1ccccc1 (centres unmarked)
–	IA	CC(Cc1cccnc1)(NC(=O)OC1C2CC3CC(C2)CC1C3)C(=O)NCCc1ccccc1 (centres unmarked)
304	–	CC(Cc1cnc2ccccc2c1)(NC(=O)OC1C2CC3CC(C2)CC1C3)C(=O)NCCc1ccccc1 (centres unmarked)
290	–	CC(Cc1ccc2ccccc2n1)(NC(=O)OC1C2CC3CC(C2)CC1C3)C(=O)NCC(NC(=O)CCC(=O)O)c1ccccc1 (centres unmarked)
88	–	CC(Cc1ccnc2ccccc12)(NC(=O)OC1C2CC3CC(C2)CC1C3)C(=O)NCC(NC(=O)CCC(=O)O)c1ccccc1 (centres unmarked)
690	–	CC(CC1CCc2ccccc2N1)(NC(=O)OC1C2CC3CC(C2)CC1C3)C(=O)NCC(NC(=O)CCC(=O)O)c1ccccc1 (centres unmarked)
3000	–	CC(CC1C=Cc2ccccc2N1)(NC(=O)OC1C2CC3CC(C2)CC1C3)C(=O)NCC(NC(=O)CCC(=O)O)c1ccccc1 (centres unmarked)
–	IA	CC(Cc1ccc[n+]([O-])c1)(NC(=O)OC1C2CC3CC(C2)CC1C3)C(=O)NCCc1ccccc1 (centres unmarked)
220	–	CC(Cc1ccncc1)(NC(=O)OC1C2CC3CC(C2)CC1C3)C(=O)NCC(NC(=O)CCC(=O)O)c1ccccc1 (centres unmarked)
1000	–	CC(Cc1ccccn1)(NC(=O)OC1C2CC3CC(C2)CC1C3)C(=O)NC(CO)Cc1ccccc1 (single isomer, unassigned) [drawing 14 (Diast I)]
–	IA	CC(Cc1cccc[n+]1[O-])(NC(=O)OC1C2CC3CC(C2)CC1C3)C(=O)NC(CO)Cc1ccccc1 (single isomer, unassigned) [drawing 20]
–	IA	CC(Cc1cccc[n+]1[O-])(NC(=O)OC1C2CC3CC(C2)CC1C3)C(=O)NC(CO)Cc1ccccc1 (single isomer, unassigned) [drawing 22 (Diast II)]
–	IA	CC(Cc1cccc[n+]1[O-])(NC(=O)OC1C2CC3CC(C2)CC1C3)C(=O)NCCc1ccccc1 (centres unmarked) [drawing 22 (H H H H H)]
720	–	CC(Cc1cccc2ccccc12)(NC(=O)OC1C2CC3CC(C2)CC1C3)C(=O)NC(CO)Cc1ccccc1 (centres unmarked) [drawing 24]
14	–	CC(Cc1cccc2ccccc12)(NC(=O)OC1C2CC3CC(C2)CC1C3)C(=O)NC(CO)Cc1ccccc1 (centres unmarked) [drawing 26]
360	–	CC(Cc1coc2ccccc12)(NC(=O)OC1C2CC3CC(C2)CC1C3)C(=O)NC(CO)Cc1ccccc1 (centres unmarked) [drawing 27 (H H CH2 OH H H)]
990	–	CC(Cc1coc2ccccc12)(NC(=O)OC1C2CC3CC(C2)CC1C3)C(=O)NCCc1ccccc1 (centres unmarked) [drawing 27 (H H H H H)]
14	–	CC(Cc1c(Br)oc2ccccc12)(NC(=O)OC1C2CC3CC(C2)CC1C3)C(=O)NC(CO)Cc1ccccc1 (centres unmarked) [drawing 28 (H H CH2 OH H H)]

Ki (read-out: Ki) [nM]	Ki	Compound
1280	–	CC(Cc1c(Br)oc2ccccc12)(NC(=O)OC1C2CC3CC(C2)CC1C3)C(=O)NCCc1ccccc1 (centres unmarked) [drawing 28 (H H H H H)]
700	–	CC(Cc1cccnc1)(NC(=O)OC1C2CC3CC(C2)CC1C3)C(=O)N[C@H](CO)Cc1ccccc1 (some centres unmarked) [drawing 32 (Diast I)]
3000	–	CC(C)COC(=O)OC[C@H](Cc1ccccc1)NC(=O)C(C)(Cc1cccnc1)NC(=O)OC1C2CC3CC(C2)CC1C3 (some centres unmarked) [drawing 32 (H H CH2 OCO2 i-Bu H H)]
410	–	CC(Cc1ccc2ccccc2n1)(NC(=O)OC1C2CC3CC(C2)CC1C3)C(=O)N[C@H](CO)Cc1ccccc1 (some centres unmarked) [drawing 36 (Diast I)]
400	–	CC(Cc1ccc2ccccc2n1)(NC(=O)OC1C2CC3CC(C2)CC1C3)C(=O)NCCc1ccccc1 (centres unmarked) [drawing 36 (H H H H H)]
69	–	CC(Cc1n[nH]c2ccccc12)(NC(=O)OC1C2CC3CC(C2)CC1C3)C(=O)N[C@H](CO)Cc1ccccc1 (some centres unmarked) [drawing 38 (H H CH2 OH H H)]
100	–	CC(Cc1n[nH]c2ccccc12)(NC(=O)OC1C2CC3CC(C2)CC1C3)C(=O)NCCc1ccccc1 (centres unmarked) [drawing 38 (H H H H H)]
129	–	CC(Cc1ccnc2ccccc12)(NC(=O)OC1C2CC3CC(C2)CC1C3)C(=O)N[C@H](CO)Cc1ccccc1 (some centres unmarked) [drawing 40 (H H CH2 OH H H)]
262	–	CC(Cc1ccnc2ccccc12)(NC(=O)OC1C2CC3CC(C2)CC1C3)C(=O)NCCc1ccccc1 (centres unmarked) [drawing 40 (H H H H H)]
402	–	CC(Cc1ccc2ccccc2n1)(NC(=O)OC1C2CC3CC(C2)CC1C3)C(=O)NC(CO)Cc1ccccc1 (centres unmarked) [drawing 43 (H H CH2 OH H H)]
455	–	CC(Cc1csc2ccccc12)(NC(=O)OC1C2CC3CC(C2)CC1C3)C(=O)N[C@H](CO)Cc1ccccc1 (some centres unmarked) [drawing 47 (H H CH2 OH H H)]
760	–	CC(Cc1csc2ccccc12)(NC(=O)OC1C2CC3CC(C2)CC1C3)C(=O)NCCc1ccccc1 (centres unmarked) [drawing 47 (H H H H H)]
96	–	CC(Cc1n[nH]c2ccccc12)(NC(=O)OC1C2CC3CC(C2)CC1C3)C(=O)NCC(NC(=O)CCC(=O)O)c1ccccc1 (centres unmarked) [drawing 53 (H H H H NHCOCH2 CH2 COOH)]
–	IA	CC(Cc1n[nH]c2ccccc12)(NC(=O)OC1C2CC3CC(C2)CC1C3)C(=O)NCC(c1ccccc1)N1C(=O)CCC1=O (centres unmarked) [drawing 53/drawing 54 (Diast I)]
220	–	CC(Cc1n[nH]c2ccccc12)(NC(=O)OC1C2CC3CC(C2)CC1C3)C(=O)NCC(c1ccccc1)N1C(=O)CCC1=O (centres unmarked) [drawing 53/drawing 54 (Diast II)]
3000	–	Cc1[nH]cc(CC(C)(NC(=O)OC2C3CC4CC(C3)CC2C4)C(=O)NC(CO)C(O)c2ccccc2)c1C (centres unmarked) [drawing 56 (H H CH2 OH H OH)]
–	IA	Cc1[nH]cc(CC(C)(NC(=O)OC2C3CC4CC(C3)CC2C4)C(=O)NCCc2ccccc2)c1C (centres unmarked) [drawing 56 (H H H H H)]
750	–	CC(Cc1ncc2ccccn12)(NC(=O)OC1C2CC3CC(C2)CC1C3)C(=O)N[C@@H](CO)[C@@H](O)c1ccccc1 (some centres unmarked) [drawing 57 (H H CH2 OH H OH)]
930	–	CC(Cc1ncc2ccccn12)(NC(=O)OC1C2CC3CC(C2)CC1C3)C(=O)NCCc1ccccc1 (centres unmarked) [drawing 57 (H H H H H)]
–	IA	CC(Cc1ccc[n+]([O-])c1)(NC(=O)OC1C2CC3CC(C2)CC1C3)C(=O)NC(CO)Cc1ccccc1 (centres unmarked) [drawing 60 (Diast I)]
370	–	CC(Cc1ccncc1)(NC(=O)OC1C2CC3CC(C2)CC1C3)C(=O)NC(CO)Cc1ccccc1 (centres unmarked) [drawing 61 (Diast I)]
–	IA	CC(Cc1ccncc1)(NC(=O)OC1C2CC3CC(C2)CC1C3)C(=O)NC(CO)Cc1ccccc1 (centres unmarked) [drawing 61 (Diast II)]

Compound	Ki (read-out: Ki) [nM]	Ki
CN1c2ccccc2C(c2ccccc2)=NCC1CC(C)(NC(=O)OC1C2CC3CC(C2)CC1C3)C(=O)NCC(NC(=O)CCC(=O)O)c1ccccc1 (centres unmarked)	290	–
CN1c2ccccc2C(c2ccccc2)=NCC1CC(C)(NC(=O)OC1C2CC3CC(C2)CC1C3)C(=O)NCCc1ccccc1 (centres unmarked) [drawing 64 (Diast I)]	760	–

— patent US5331006A, “Amino acid analogs as CCK antagonists” (Warner-Lambert Company, priority 1991, dated 1994)
